# Experimental data published in patent US10105351B2, “Neurofibromatoses therapeutic agents and screening for same” (University of Central Florida Research Foundation, Inc., priority 2012, dated 2018).
# Structures can show the parent of a compound that is named as a salt. Where two headings read alike, the source gives them in different places.
# Columns and labels:
# [1] = tested on: merlin-null Schwann cells; test: Propidium iodide and BrdU/7AAD flow cytometer cell cycle assays; type: cell-based, mouse
# Protocol: FIGS. 9A-D. Phenotypic Proliferation Assays. (A) Merlin-null Schwann cells (384-well format) were treated with the indicated compounds and concentrations for 24 hours and labeled with EdU during the last 9 hours. Incorporation of EdU into S-phase cells was read on a Biotek H1 Hybrid reader. (B) The plate was also imaged with a Trophos high resolution fluorescence Plate Runner. (C). Merlin-null Schwann cells were grown in 6-well format and were treated with 5 uM compounds for 22 hours, then labeled with PI. The cell population profile is shown and was analyzed using the ModFit program. (D). Merlin-null Schwann cells were grown as in C but were labeled with BrdU during the final 3 hours of treatment then stained with 7AAD. The distribution of BrdU- and 7AAD-labelled cells is shown and was analyzed with Diva program. The BD Cantos II flow cytometer was used above.
# In yet another aspect, identification of compounds that affect proliferation of Merlin-null mouse Schwann cells can be performed by conducting a Click-iT EdU Microplate Assay (Life Technologies) in the 384 well-plate format and then follow-up with BrdU/7AAD and propidium iodide flow cytometer assays. […] Fluorescence emission is measured on a Hybrid HT plate reader (FIG. 9A) as well as on a Trophos Plate RUNNER HD that captures images of the wells (FIG. 9B). […]
# [2] = tested on: merlin-null Schwann cells; test: Orthogonal ATP-based luminescence cell viability assay (CellTiter-GLO); conditions: for Orthogonal Assay Average of two, cell viability: average of two assays with one cell line at P18-23
# [3] = tested on: normal nf2^flox2/flox2 Schwann cells; test: Selectivity assay: cell viability of normal Schwann cells; conditions: one assay with mouse nf2^flox2/flox2 Schwann cells at P2
# Protocol: (§3) The compounds were tested at 10 uM in 8 replicates in a 384-well format using the live cell protease assay (CellTiter-Fluor) and the orthogonal ATP-based assay (CellTiter-GLO) (both from Promega). We tested the compounds on two Merlin-null Schwann cell lines, L1, (used in the LOPAC screen) at passages ranging from 13-23 and an independently-derived line, L2, tested at passage 20 and 21.
# [4] = tested on: merlin-null Schwann cells; test: Apo-ONE Homogeneous caspase-3/7 assay; type: cell-based, mouse; conditions: 8 hours, 384-well format
# Protocol: (§1) FIGS. 8A-C. Phenotypic Apoptosis Assays. (A). Merlin-null Schwann cells in a 384-well format were incubated with the indicated compounds for 8 hours. Caspase-3/7 activity was measure with Apo-ONE Homogeneous Assay (Promega). n=32 wells. (B). Merlin-null Schwann cells in a 6-well format were treated with compounds (10 uM) for 24 hours. Membrane asymmetry was detected with Violet Ratiometric assay and read on a BD Cantos II flow cytometer. (C). Population distribution for B is shown.
# (§2) In yet another aspect, compounds may be identified which induce programmed cell death or inhibit proliferation of Merlin-null Schwann cells. Merlin-pathway assays may be conducted to identify the subset of compounds that modulate the activity of known merlin pathways. The effector caspase cascade is activated in many extrinsic and intrinsic cell death pathways^29. […] The effect of compounds on caspase-3 activity can be measured by first lysing the cells and centrifuging to pellet the debris. […] Enzyme activity may be measured on an Envision plate reader at Ex400 nm/Em505 nm. The enzyme activity may be calculated from a standard curve generated using recombinant caspase-3 enzyme (R&D System, Inc.) and expressed as fold-increase in activity. […] Transfer of phosphatidylserine and phosphatidylethanolamine from the inner to the outer leaflet of the plasma membrane changes the membrane potential that is detected by F2N12S. […]
# [5] = tested on: merlin-null Schwann cells; test: Primary assay: live cell protease assay (CellTiter-Fluor), cell viability; conditions: for Primary Assay (m +/− sd), cell viability: mean and SD of four assays
# Protocol: (§4) Cell viability was measured with the CellTiter-Fluor Live Protease Assay (Promega). […] One way ANOVA Kurskal-Wallis test was used with a Dunn's Multiple Comparison post-test.
# as §3
# [6] = tested on: merlin-null Schwann cells; conditions: 10 µM
# Protocol: as §4, §3
# [7] = tested on: merlin-null Schwann cells; conditions: 10 µM; remark: listed apart in the source
# [8] = tested on: normal nf2^flox2/flox2 Schwann cells; conditions: 10 µM
# Protocol: as §3
# [9] = tested on: merlin-null Schwann cells; test: MultiTox-Fluor Multiplex Cytotoxicity Assay (assay validation and LOPAC pilot screen); type: cell-based, mouse; conditions: 50 μM; 384-well plate, 5,000 cells/well
# Protocol: Merlin-null Schwann cells were seeded at 5,000 cells/well in an uncoated Corning Cell-Bind 384-well plate. A) Result of a rapamycin dose response study conducted with the MultiTox-Fluor assay is shown. B) Cell viability in the presence of 0.5% DMSO or 0.5% DMSO plus 50 μM rapamycin (RM) added 4 hours after plating was measured 24 hours later as described in the FIG. 3 legend.
# A pilot screen of Sigma's LOPAC was conducted to test the reliability of our system. The 1280 compounds were tested at 10 μM in 0.5% DMSO in single wells. They were added 4 hours after cell plating and the MultiTox-Fluor assay was run 24 hours later. The positive control included cells treated with 50 μM rapamycin in 0.5% DMSO and the negative control included cells treated with 0.5% DMSO. The signals for live and dead protease activities were collected sequentially. […] The screen yielded 40 hits using a cut-off value equal to 80% of the live:dead signal of the rapamycin positive control which was equivalent to 50% of live cell signal (FIG. 5). The hits represent a spectrum of compounds that fall into 5 basic categories; 1) inhibitors of signaling kinases, 2) cell-cycle inhibitors, 3) pro-apoptotic agents, 4) receptor inhibitors and 5) modulators of cell metabolism.
# [10] = tested on: merlin-null Schwann cells; test: Violet Ratiometric Membrane Asymmetry Probe/Dead Cell Apoptosis assay (flow cytometer); type: cell-based, mouse; conditions: 10 uM, 24 hours, 6-well format
# Protocol: as §1, §2
# [11] = 10 uM, 8 replicates, 384 well plate, two independently derived merlin-null Schwann cell lines at P13-23
molecule,measurement,setting,value
"N#C/C(=C\c1ccc(-c2cc(Cl)ccc2Cl)o1)C(=O)Nc1cccc2ncccc12 [AGK2, 2-Cyano-3-[5-(2,5-dichlorophenyl)-2-furanyl]-N-5-quinolinyl-2-propenamide]",anti-proliferative effects on the cells,[1]; 24 hours of drug treatment and S-phase labelling for the final 3 hours,did not reveal clear anti-proliferative effects
same,"Orthogonal Assay Average of two, cell viability",[2]; 10 uM,78.6 % of DMSO Control
same,activity on viability in orthogonal screen and dose response,[2]; Merlin-null Schwann cells L1P12,confirmed
same,"Selectivity Assay, cell viability",[3]; 10 uM,42 % of DMSO Control
same,mechanism of apoptotic death with respect to caspase-3/7 activity,[4],caspase3/7-independent
same,cell viability,"[5]; 10 uM, 24 hours, lines L1, L2 at P12-18, CellTiter-Fluor",< 50 % of DMSO control
same,"Primary Assay (m +/− sd), cell viability",[5]; [11],65 +/− 14 % of DMSO Control
CC(C)C(=O)Nc1ncc(-c2cc(C(F)F)nn2-c2c(Cl)cccc2Cl)s1 [BMS-5],PI labeling and BrdU cell cycle profiles,"[1]; 5 uM, 22 hours",accumulate in G2/M
same,"Primary Assay (m +/− sd), cell viability",[6],65 +/− 14 % of DMSO Control
same,mechanism of apoptotic death with respect to caspase-3/7 activity,[4],caspase3/7-independent
same,"Orthogonal Assay Average of two, cell viability",[7],63.2 % of DMSO Control
"Ic1ccccc1CNC1C2CCN(CC2)C1C(c1ccccc1)c1ccccc1 [L-703,606 oxalate salt hydrate, cis-2-(Diphenylmethyl)-N-[(2-iodophenyl)methyl]-1-azabicyclo[2.2.2]octan-3-amine]","Orthogonal Assay Average of two, cell viability",[2]; 10 uM,40.6 % of DMSO Control
same,"Primary Assay (m +/− sd), cell viability",[5]; [11],62 +/− 11 % of DMSO Control
same,"Selectivity Assay, cell viability",[8],33 % of DMSO Control
"CO[C@H]1C[C@@H]2CC[C@@H](C)[C@@](O)(O2)C(=O)C(=O)N2CCCC[C@H]2C(=O)O[C@H]([C@H](C)C[C@@H]2CC[C@@H](O)[C@H](OC)C2)CC(=O)[C@H](C)/C=C(\C)[C@@H](O)[C@@H](OC)C(=O)[C@H](C)C[C@H](C)/C=C/C=C/C=C/1C [Rapamycin, rapamycin]",Viability of cells (live cell protease),[9],20+/−1.4 % of the DMSO control
same,"Orthogonal Assay Average of two, cell viability",[2]; 50 uM,10.6 % of DMSO Control
same,"Selectivity Assay, cell viability",[3]; 50 uM,30 % of DMSO Control
same,"Primary Assay (m +/− sd), cell viability","[5]; 50 uM, two merlin-null Schwann cell lines at P13-23",18 +/− 3 % of DMSO Control
chelerythrine chloride,apoptotic death (Q1+Q3) of cells,[10],93%
